{"source": "ChEMBL document CHEMBL1140165", "about": "“Rotationally constrained 2,4-diamino-5,6-disubstituted pyrimidines: a new class of histamine H4 receptor antagonists with improved druglikeness and in vivo efficacy in pain and inflammation models” (J Med Chem, 2008)", "key": {"[1]": {"assay": "Fractional bioavailability in rat at 5 mg/kg, iv and 5 mg/kg, po", "assay_type": "ADME, organism-based", "settings": "in vivo"}, "[2]": {"assay": "Terminal volume of distribution in rat at 10 mg/kg, iv", "assay_type": "ADME, organism-based", "design": "dose 10 mg/kg, route intravenous", "settings": "in vivo, read-out: Vbeta"}, "[3]": {"molecular_target": "Cannabinoid receptor 1 (Homo sapiens) (UniProt P21554)", "sequence (P21554 whole entry)": "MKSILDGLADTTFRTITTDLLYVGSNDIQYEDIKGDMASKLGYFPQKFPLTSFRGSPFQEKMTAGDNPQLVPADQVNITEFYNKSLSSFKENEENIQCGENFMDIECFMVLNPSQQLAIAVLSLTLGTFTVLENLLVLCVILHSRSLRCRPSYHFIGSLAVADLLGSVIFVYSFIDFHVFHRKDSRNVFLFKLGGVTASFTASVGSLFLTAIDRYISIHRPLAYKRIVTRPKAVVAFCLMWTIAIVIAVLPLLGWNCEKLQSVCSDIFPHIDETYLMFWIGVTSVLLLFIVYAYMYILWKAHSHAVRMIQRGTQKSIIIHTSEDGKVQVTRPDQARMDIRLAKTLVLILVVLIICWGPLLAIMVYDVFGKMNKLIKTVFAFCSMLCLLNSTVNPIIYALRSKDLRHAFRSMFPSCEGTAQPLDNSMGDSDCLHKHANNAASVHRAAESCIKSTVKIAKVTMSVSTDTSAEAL", "assay": "Binding affinity to CB1 receptor"}, "[4]": {"molecular_target": "Delta-type opioid receptor (Homo sapiens) (UniProt P41143)", "sequence (P41143 whole entry)": "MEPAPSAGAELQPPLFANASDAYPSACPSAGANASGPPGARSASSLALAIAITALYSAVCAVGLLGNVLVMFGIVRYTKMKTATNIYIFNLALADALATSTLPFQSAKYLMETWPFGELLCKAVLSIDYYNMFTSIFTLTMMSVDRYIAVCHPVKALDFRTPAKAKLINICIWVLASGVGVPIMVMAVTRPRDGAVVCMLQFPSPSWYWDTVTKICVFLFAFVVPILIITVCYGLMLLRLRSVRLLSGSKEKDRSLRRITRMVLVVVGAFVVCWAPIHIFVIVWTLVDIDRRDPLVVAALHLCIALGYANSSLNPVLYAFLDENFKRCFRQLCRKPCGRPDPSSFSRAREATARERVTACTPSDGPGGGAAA", "assay": "Binding affinity to delta opioid receptor"}, "[5]": {"assay": "Fractional bioavailability in rat at 10 mg/kg, iv and 10 mg/kg, po", "assay_type": "ADME, organism-based", "settings": "in vivo"}, "[6]": {"assay": "Ratio of drug level in brain to plasma in rat at 10 mg/kg, iv after 30 mins", "assay_type": "ADME, organism-based", "design": "dose 10 mg/kg, route intravenous"}, "[7]": {"test_system": "BMMC", "assay": "Blockade of histamine-induced morphological changes in BALB/c mouse BMMC by flow cytometry", "assay_type": "functional, cell-based"}, "[8]": {"molecular_target": "Prostaglandin G/H synthase 1 (Homo sapiens) (UniProt P23219)", "sequence (P23219 whole entry)": "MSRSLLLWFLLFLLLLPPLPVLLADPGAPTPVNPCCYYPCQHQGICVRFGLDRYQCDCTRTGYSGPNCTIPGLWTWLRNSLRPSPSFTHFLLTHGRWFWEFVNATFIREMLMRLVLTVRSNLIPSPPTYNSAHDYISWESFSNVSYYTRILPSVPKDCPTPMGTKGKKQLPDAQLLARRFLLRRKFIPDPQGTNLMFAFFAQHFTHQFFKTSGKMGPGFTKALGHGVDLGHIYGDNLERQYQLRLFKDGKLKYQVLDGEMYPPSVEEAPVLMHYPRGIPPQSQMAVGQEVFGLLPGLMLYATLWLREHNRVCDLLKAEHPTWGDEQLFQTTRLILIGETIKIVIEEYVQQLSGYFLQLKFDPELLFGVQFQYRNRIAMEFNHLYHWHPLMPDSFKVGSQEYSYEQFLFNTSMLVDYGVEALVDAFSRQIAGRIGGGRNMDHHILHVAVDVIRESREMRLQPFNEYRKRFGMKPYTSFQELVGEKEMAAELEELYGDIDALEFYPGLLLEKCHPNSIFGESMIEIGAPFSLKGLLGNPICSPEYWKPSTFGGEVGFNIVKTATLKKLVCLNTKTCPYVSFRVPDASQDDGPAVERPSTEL", "assay": "Binding affinity at COX1"}, "[9]": {"test_system": "Mus musculus", "assay": "Blood clearance in mouse at 5 mg/kg, iv", "assay_type": "ADME, organism-based", "design": "dose 5 mg/kg, route intravenous", "settings": "in vivo"}, "[10]": {"molecular_target": "Cytochrome P450 3A4 (Homo sapiens, UniProt P08684)", "sequence (P08684 whole entry)": "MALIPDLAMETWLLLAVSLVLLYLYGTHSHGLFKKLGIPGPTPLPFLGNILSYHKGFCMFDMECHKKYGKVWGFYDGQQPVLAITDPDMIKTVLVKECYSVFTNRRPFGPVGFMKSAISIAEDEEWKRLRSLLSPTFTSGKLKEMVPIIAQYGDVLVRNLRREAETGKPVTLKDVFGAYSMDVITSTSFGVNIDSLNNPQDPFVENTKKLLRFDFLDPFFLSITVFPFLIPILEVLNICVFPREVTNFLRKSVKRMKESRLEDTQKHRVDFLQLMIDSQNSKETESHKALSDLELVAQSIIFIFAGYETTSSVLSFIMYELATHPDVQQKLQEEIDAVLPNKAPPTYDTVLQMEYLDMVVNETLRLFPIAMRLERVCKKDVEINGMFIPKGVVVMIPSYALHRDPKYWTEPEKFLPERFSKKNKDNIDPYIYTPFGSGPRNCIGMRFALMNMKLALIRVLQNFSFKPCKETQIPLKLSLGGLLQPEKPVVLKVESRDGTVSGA", "assay": "Inhibition of CYP3A4 upto 10 uM", "assay_type": "ADME"}, "[11]": {"assay": "Half life in mouse at 5 mg/kg, iv", "assay_type": "ADME, organism-based", "design": "dose 5 mg/kg, route intravenous", "settings": "in vivo"}, "[12]": {"assay": "Metabolic stability in mouse liver microsomes", "assay_type": "ADME, Microsome"}, "[13]": {"molecular_target": "Histamine H4 receptor (Homo sapiens, UniProt Q9H3N8)", "sequence (Q9H3N8 whole entry)": "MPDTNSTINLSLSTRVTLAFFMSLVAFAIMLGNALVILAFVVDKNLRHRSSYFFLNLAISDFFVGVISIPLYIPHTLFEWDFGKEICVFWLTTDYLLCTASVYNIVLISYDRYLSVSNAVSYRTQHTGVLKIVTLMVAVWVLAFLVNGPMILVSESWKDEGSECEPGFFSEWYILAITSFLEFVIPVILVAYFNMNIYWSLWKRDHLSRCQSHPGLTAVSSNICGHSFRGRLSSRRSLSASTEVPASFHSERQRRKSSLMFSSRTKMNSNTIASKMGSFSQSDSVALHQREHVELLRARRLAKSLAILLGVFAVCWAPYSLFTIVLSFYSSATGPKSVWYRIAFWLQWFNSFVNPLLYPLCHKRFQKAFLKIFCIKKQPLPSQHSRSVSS", "settings": "HEK293"}, "[14]": {"test_system": "Rattus norvegicus", "assay": "Antinociceptive efficacy in spinal nerve ligated Sprague-Dawley rat assessed as reduction of neuropathic pain in left side paw at 100 umol/kg, ip administered 30 mins before testing relative to control", "assay_type": "functional"}, "[15]": {"molecular_target": "Cytochrome P450 2C9 (Homo sapiens, UniProt P11712)", "sequence (P11712 whole entry)": "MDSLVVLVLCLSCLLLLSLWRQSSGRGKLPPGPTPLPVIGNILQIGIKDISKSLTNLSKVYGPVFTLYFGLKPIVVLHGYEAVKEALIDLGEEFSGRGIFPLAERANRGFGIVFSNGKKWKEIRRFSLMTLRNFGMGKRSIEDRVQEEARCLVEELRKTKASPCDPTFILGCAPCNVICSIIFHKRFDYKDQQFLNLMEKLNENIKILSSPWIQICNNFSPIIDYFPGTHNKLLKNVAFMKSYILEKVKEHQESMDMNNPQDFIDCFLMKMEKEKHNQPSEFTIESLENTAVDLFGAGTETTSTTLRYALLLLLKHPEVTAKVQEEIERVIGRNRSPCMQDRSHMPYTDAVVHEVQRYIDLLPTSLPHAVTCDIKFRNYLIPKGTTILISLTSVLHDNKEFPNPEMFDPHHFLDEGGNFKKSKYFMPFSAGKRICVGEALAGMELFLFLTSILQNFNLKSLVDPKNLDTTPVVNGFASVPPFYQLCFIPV", "assay": "Inhibition of CYP2C9 upto 10 uM", "assay_type": "ADME"}, "[16]": {"molecular_target": "T1, Histamine H4 receptor (Rattus norvegicus, UniProt Q91ZY1)", "T1 sequence (Q91ZY1 whole entry)": "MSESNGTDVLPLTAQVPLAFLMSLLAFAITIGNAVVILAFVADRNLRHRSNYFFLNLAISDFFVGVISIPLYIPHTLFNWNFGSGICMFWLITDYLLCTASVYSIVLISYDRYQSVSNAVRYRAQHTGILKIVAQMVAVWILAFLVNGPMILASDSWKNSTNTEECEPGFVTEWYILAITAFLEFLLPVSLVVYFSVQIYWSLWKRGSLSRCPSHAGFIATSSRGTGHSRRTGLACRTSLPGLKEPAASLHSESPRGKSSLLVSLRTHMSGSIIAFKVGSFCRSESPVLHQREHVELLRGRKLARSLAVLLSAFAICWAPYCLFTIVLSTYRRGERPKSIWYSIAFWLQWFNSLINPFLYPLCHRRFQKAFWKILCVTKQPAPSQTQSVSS", "assay": "Antagonist activity at rat histamine H4 receptor expressed in HEK293 cells assessed as inhibition of histamine-induced intracellular calcium elevation by FLIPR assay", "assay_type": "functional, cell-based"}, "[17]": {"test_system": "Rattus norvegicus", "assay": "Antinociceptive efficacy in rat assessed as inhibition of carrageenan-induced inflammatory pain in paw at 100 umol/kg, ip after 30 mins by hotbox assay relative to control", "assay_type": "functional"}, "[18]": {"molecular_target": "T2, Prostaglandin G/H synthase 2 (Homo sapiens) (UniProt P35354)", "T2 sequence (whole entry)": "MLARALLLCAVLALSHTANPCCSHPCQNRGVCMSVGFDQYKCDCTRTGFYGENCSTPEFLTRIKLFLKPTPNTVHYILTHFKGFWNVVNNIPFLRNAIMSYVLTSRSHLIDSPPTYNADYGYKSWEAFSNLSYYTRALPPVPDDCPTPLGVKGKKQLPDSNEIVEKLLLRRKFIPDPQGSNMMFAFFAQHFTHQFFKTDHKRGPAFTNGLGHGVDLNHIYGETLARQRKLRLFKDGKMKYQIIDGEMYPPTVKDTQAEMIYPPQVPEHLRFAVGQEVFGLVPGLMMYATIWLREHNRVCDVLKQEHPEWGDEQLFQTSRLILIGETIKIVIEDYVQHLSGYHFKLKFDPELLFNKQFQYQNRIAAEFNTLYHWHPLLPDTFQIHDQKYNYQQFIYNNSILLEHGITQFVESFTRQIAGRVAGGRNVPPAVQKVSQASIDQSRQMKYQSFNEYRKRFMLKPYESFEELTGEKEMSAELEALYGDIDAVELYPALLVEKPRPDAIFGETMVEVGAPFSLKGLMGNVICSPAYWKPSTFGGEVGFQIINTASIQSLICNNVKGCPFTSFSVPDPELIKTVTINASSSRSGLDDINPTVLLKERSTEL", "assay": "Binding affinity at COX2"}, "[19]": {"test_system": "Mus musculus", "assay": "Antiinflammatory activity against ip dosed BALB/c mouse assessed as inhibition of zymosan-induced peritonitis after 2 hrs pretreated 30 mins before zymosan challenge", "assay_type": "functional"}, "[20]": {"assay": "Half life in rat at 10 mg/kg, iv", "assay_type": "ADME, organism-based", "design": "dose 10 mg/kg, route intravenous", "settings": "in vivo"}, "[21]": {"assay": "Protein binding in human", "assay_type": "ADME, organism-based", "settings": "in vivo, read-out: PB (converted)"}, "[22]": {"assay": "Terminal volume of distribution in mouse at 5 mg/kg, iv", "assay_type": "ADME, organism-based", "design": "dose 5 mg/kg, route intravenous", "settings": "in vivo, read-out: Vbeta"}, "[23]": {"molecular_target": "Mu-type opioid receptor (Homo sapiens) (UniProt P35372)", "sequence (P35372 whole entry)": "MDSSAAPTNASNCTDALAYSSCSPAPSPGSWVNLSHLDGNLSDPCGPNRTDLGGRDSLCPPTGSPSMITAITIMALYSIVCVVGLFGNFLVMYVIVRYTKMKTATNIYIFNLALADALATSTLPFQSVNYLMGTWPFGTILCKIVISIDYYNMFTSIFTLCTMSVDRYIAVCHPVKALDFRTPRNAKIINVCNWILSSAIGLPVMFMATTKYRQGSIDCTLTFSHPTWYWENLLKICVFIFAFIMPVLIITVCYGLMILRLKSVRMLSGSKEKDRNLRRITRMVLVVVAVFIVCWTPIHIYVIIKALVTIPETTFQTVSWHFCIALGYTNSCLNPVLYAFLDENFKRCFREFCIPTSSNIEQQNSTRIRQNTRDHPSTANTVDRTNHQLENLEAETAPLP", "assay": "Binding affinity to mu opioid receptor"}, "[24]": {"test_system": "Liver microsomes", "assay": "Metabolic stability in rat liver microsomes", "assay_type": "ADME, Microsome"}, "[25]": {"test_system": "Mus musculus", "assay": "Inhibition of clobenpropit-induced itching in ip dosed CD1/ICR mouse assessed as blockade of scratching in hind paw for 25 mins pretreated 30 mins before clobenpropit challenge", "assay_type": "functional"}, "[26]": {"assay": "Blood clearance in rat at 10 mg/kg, iv", "assay_type": "ADME, organism-based", "design": "dose 10 mg/kg, route intravenous", "settings": "whole blood"}, "[27]": {"assay": "Protein binding in rat", "assay_type": "ADME, organism-based", "settings": "in vivo, read-out: PB (converted)"}, "[28]": {"test_system": "Liver microsomes", "assay": "Metabolic stability in human liver microsomes", "assay_type": "ADME, Microsome"}, "[29]": {"test_system": "Rattus norvegicus", "assay": "Antinociceptive efficacy in ip dosed rat assessed as inhibition of carrageenan-induced inflammatory pain in paw after 30 mins by hotbox assay", "assay_type": "functional", "settings": "0.5 h"}, "[30]": {"molecular_target": "T3, Histamine H4 receptor (Mus musculus, UniProt Q91ZY2)", "T3 sequence (Q91ZY2 whole entry)": "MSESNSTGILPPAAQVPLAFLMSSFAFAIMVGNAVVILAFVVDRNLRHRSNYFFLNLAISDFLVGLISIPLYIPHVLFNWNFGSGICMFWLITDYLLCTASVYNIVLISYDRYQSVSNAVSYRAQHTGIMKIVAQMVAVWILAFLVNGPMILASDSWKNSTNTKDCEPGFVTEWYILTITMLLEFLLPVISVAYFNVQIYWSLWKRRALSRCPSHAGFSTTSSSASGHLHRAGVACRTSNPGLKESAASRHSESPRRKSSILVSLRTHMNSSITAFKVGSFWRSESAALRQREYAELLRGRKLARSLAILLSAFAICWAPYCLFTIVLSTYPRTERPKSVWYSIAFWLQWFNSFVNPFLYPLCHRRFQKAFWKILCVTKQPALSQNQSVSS", "assay": "Antagonist activity at mouse histamine H4 receptor expressed in HEK293 cells assessed as inhibition of histamine-induced intracellular calcium elevation by FLIPR assay", "assay_type": "functional, cell-based"}, "[31]": {"molecular_target": "Cannabinoid receptor 2 (Homo sapiens) (UniProt P34972)", "sequence (P34972 whole entry)": "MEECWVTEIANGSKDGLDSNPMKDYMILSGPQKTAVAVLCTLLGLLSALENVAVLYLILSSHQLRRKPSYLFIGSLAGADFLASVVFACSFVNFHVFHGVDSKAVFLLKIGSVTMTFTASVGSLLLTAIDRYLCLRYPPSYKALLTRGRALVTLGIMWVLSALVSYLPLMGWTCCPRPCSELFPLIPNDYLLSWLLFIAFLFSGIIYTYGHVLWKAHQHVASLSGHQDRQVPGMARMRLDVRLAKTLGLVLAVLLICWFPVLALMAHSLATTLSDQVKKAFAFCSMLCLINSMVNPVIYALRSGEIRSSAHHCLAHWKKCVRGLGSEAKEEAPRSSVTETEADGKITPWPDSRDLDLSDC", "assay": "Binding affinity to CB2 receptor"}, "[32]": {"molecular_target": "Kappa-type opioid receptor (Homo sapiens) (UniProt P41145)", "sequence (P41145 whole entry)": "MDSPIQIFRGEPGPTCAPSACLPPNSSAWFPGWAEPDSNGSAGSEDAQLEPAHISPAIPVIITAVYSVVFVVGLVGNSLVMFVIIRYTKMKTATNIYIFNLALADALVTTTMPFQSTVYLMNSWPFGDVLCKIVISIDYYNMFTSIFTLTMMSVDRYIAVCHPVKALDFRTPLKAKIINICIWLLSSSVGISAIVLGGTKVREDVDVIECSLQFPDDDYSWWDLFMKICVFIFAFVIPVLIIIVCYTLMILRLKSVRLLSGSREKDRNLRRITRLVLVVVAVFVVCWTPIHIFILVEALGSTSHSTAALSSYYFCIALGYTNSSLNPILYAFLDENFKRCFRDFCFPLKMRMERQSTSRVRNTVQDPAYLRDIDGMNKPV", "assay": "Binding affinity to kappa opioid receptor"}, "[33]": {"molecular_target": "T1, Histamine H4 receptor", "assay": "Displacement of [3H]histamine from rat histamine H4 receptor expressed in HEK293 cells", "assay_type": "cell-based"}, "[34]": {"molecular_target": "Cytochrome P450 2D6 (Homo sapiens, UniProt P10635)", "sequence (P10635 whole entry)": "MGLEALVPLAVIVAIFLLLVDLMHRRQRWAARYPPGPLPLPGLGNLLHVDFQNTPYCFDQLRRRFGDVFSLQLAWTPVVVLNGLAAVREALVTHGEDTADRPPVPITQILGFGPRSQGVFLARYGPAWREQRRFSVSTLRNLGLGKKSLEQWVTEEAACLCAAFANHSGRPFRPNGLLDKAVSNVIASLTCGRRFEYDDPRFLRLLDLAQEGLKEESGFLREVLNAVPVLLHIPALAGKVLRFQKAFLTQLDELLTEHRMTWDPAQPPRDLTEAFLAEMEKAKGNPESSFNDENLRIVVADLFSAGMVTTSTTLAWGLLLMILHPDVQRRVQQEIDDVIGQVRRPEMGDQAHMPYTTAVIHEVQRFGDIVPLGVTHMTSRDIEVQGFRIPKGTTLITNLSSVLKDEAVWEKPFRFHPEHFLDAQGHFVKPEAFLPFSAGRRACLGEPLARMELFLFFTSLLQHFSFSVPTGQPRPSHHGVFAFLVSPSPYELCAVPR", "assay": "Inhibition of CYP2D6 upto 10 uM", "assay_type": "ADME"}}, "note": "Activity calls are given as the source filed them. The rule behind the calls is not given here.", "data": [{"molecule": "Nc1nc2c(c(N3CC[C@@H](N)C3)n1)CCCc1ccccc1-2", "values": [{"measurement": "bioavailability", "setting": "[1]", "result": 90, "unit": "%"}, {"measurement": "Vd", "setting": "[2]", "result": 72.9, "unit": "L/kg"}, {"measurement": "Activity", "setting": "[3]", "result": "inactive"}, {"measurement": "Activity", "setting": "[4]", "result": "inactive"}, {"measurement": "bioavailability", "setting": "[5]", "result": 34, "unit": "%"}, {"measurement": "Kp at 0.5 h", "setting": "[6]", "result": 2.2}, {"measurement": "Activity", "setting": "[7]", "result": "Active"}, {"measurement": "Activity", "setting": "[8]", "result": "inactive"}, {"measurement": "CL", "setting": "[9]", "result": 71.3, "unit": "L/h/kg"}, {"measurement": "Activity", "setting": "[10]", "result": "Not Active"}, {"measurement": "half-life", "setting": "[11]", "result": 96, "unit": "min"}, {"measurement": "Stability", "setting": "[12]", "result": 32.9, "unit": "pmol/min/mg"}, {"measurement": "pKb", "setting": "[13]", "result": 8.24}, {"measurement": "Efficacy", "setting": "[14]", "result": 47, "unit": "%"}, {"measurement": "Activity", "setting": "[15]", "result": "Not Active"}, {"measurement": "EC50", "setting": "[16]", "result": 10, "unit": "nM"}, {"measurement": "Efficacy", "setting": "[17]", "result": 68, "unit": "%"}, {"measurement": "Activity", "setting": "[18]", "result": "inactive"}, {"measurement": "ED50", "setting": "[19]", "result": 34, "unit": "µmol/kg"}, {"measurement": "half-life", "setting": "[20]", "result": 156, "unit": "min"}, {"measurement": "fraction unbound", "setting": "[21]", "result": 0.52}, {"measurement": "Vd", "setting": "[22]", "result": 131, "unit": "L/kg"}, {"measurement": "Activity", "setting": "[23]", "result": "inactive"}, {"measurement": "Stability", "setting": "[24]", "result": 19, "unit": "pmol/min/mg"}, {"measurement": "ED50", "setting": "[25]", "result": 33, "unit": "µmol/kg"}, {"measurement": "clearance", "setting": "[26]", "result": 323, "unit": "mL/min/kg"}, {"measurement": "fraction unbound", "setting": "[27]", "result": 0.45}, {"measurement": "Stability", "setting": "[28]", "result": 13, "unit": "pmol/min/mg"}, {"measurement": "ED50", "setting": "[29]", "result": 72, "unit": "µmol/kg"}, {"measurement": "EC50", "setting": "[30]", "result": 5.75, "unit": "nM"}, {"measurement": "Activity", "setting": "[31]", "result": "inactive"}, {"measurement": "Activity", "setting": "[32]", "result": "inactive"}, {"measurement": "Ki", "setting": "[33]", "result": 3.8, "unit": "nM"}, {"measurement": "Activity", "setting": "[34]", "result": "Not Active"}]}]}
